Measurements: publication PMC5893132, “Selective inhibition of histamine-evoked Ca^2+ signals by compartmentalized cAMP in human bronchial airway smooth muscle cells” (Cell Calcium, 2018)
Structures can show the parent of a compound that is named as a salt.

Experiments:
[1] = test system: histamine-evoked Ca^2+ signals in hBASMCs; assay: Histamine-evoked Ca2+ signals in populations of fluo-4-loaded hBASMCs; format: cell-based, human; settings: HBSS
Procedure, shortened: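 Serum-starved hBASMCs loaded with fluo-4-AM (2 μM, or FLIPR calcium 4 kit) with probenecid 2.5 mM; recordings at 20 °C in HEPES-buffered saline pH 7.3, sometimes Ca²⁺-free or with BAPTA. Fluorescence calibrated to [Ca²⁺]i (KD 345 nM); one concentration per well, logistic fits giving EC50, maximal response, Hill slope.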

[2] = test system: intracellular Ca^2+ stores of hBASMCs; assay: Ca2+ content of intracellular stores, by ionomycin in Ca2+-free HBS; format: cell-based, human; settings: isoproterenol, forskolin 10 μM, 5 min, 2-APB 5 min, higher concentrations needed than for inhibition of GPCR-evoked signals

CC(C)NC[C@H](O)c1ccc(O)c(O)c1 [isoproterenol, (−)-isoproterenol hydrochloride] was tested, and the IC50 ([1]; Homo sapiens, added 5 min before histamine 10 μM, n = 4, read-out: pIC50 for inhibition of histamine-evoked Ca2+ signals (converted)) was 8.13 nM, the “maximal amplitude of the peak increase in [Ca2+]i evoked by histamine after pre-treatment” value ([1]; after isoproterenol 10 μM, 5 min, n = 7, control 242 ± 15 nM) was 168 ± 19 nM and the “effect on the Ca2+ content of the intracellular stores” value [2] was “Neither isoproterenol nor forskolin (10 μM, 5 min) affected”.
